In patent publication US4049660A, “N-substituted derivatives of 4 (N-piperazinylmethyl) spiro dibenzocycloheptadi- (or tri-) ene-5, 2-dioxolane (1,3) their method of preparation and their application in therapeutics” (Delalande S.A., priority 1971, dated 1977):
Like-named read-outs stand apart in the source and are kept apart here.

What was measured:
[1] = test system: ptosis caused by reserpine; assay: Anti-depressive: antagonism against ptosis caused by intravenous reserpine; format: in vivo; conditions: for ED50: po, Table XIII, read-out: Antagonism against ptosis caused by reserpine (DE50)
Method: (§1) In this regard, the compounds of formula I differ unexpectedly from the compounds of U.S. Pat. No. 3,726,900, as shown by comparative testing.
(§2) The anti-depressive properties of additional analog compounds were tested by the same tests. In these tests, the comparison compounds had the formula [drawing 28] The specific compounds tested and the test results are indicated in Table XIII.

[2] = Acute toxicity / mortality, oral, mice; format: in vivo; conditions: mouse, in vivo; for LD50: oral; for mortality: read-out: Percentage of mortality with mice
Source text: As is shown by the preceding results and by those given in Table XIV below, the difference between pharmacologically active doses and lethal doses is sufficiently great to allow the use of compounds of formula (I) in therapeutics.

[3] = test system: ventricular fibrillations caused by inhaling chloroform; assay: Antiarythmic: ventricular fibrillations caused by inhaling chloroform in mouse; format: in vivo; conditions: ip, intraperitoneal, read-out: Antagonism to fibrillations caused by chloroform with a mouse, DE50
Source text: Administered intraperitoneally, the compounds of formula (I) are able to protect the mouse against ventricular fibrillations caused by inhaling chloroform.

[4] = test system: isolated duodenum of a rat (barium chloride); assay: Spasmolytic: contraction by barium chloride of isolated duodenum of a rat; conditions: for Spasmolytic activity: relative to papaverine as the standard
Method: Compounds of formula I, introduced in the survival medium, are capable of opposing the contacting action of barium chloride on the isolated duodenum of a rat. This activity is determined either by taking papaverine as the standard or by calculating the DE50 of the compound tested.

[5] = test system: isolated ileum of a guinea pig (histamine); assay: Antihistamine: contraction by histamine of isolated ileum of a guinea pig
Method: The compounds of formula (I) introduced in the survival medium are able to oppose the contracting action of histamine on the isolated ileum of a guinea pig. This activity is calculated by the DE50 of the tested compounds.

[6] = test system: isolated fundus of rats (serotonine); assay: Antiserotonine: contractions of the isolated fundus of rats provoked by serotonine; conditions: in vitro
Source text: (§3) For purposes of comparison, compounds of the formula (I) were compared, as to their antiserotonine properties, with a respresentative sampling of compounds disclosed in U.S. Pat. No. 3,726,900. The comparison compounds tested have the formula [drawing 23]

[7] = test system: bronchoconstrictions provoked by serotonine; assay: Antiserotonine: bronchoconstrictions provoked by intravenous serotonine in guinea pigs (Konzett and Rossler test); format: in vivo; conditions: Cavia porcellus, serotonine bronchoconstriction, read-out: Test of Konzett and Rossler DE50
Source text: as §3

[8] = test system: isolated tied uterus (serotonine); assay: Antiserotonine: contractions of the isolated tied uterus provoked by serotonine; conditions: in vitro
Source text: as §3

[9] = test system: urinary elimination; assay: Diuretic: volume of urine in mouse; format: in vivo; conditions: 12.5 mg/kg/PO, 4 hours, versus controls, read-out: Percentage increase in urinary elimination
Method: The compounds of formula (I) administered orally to a mouse simultaneously with a volume of 1 ml of sodium chloride isotonic solute per 25 g of body weight are able to cause an increase of the volume of urine given compared with controls, this volume being measured for the 4 hours following administration.

[10] = test system: cough caused by stimulation of the upper laryngeal nerve; assay: Anti-cough: cough caused by stimulation of the upper laryngeal nerve in an anaesthetized cat; format: in vivo
[11] = test system: arterial pressure; assay: Hypotensive: arterial pressure of anaesthetized rat; format: in vivo
Source text: Administered intravenously to an anaesthetized rat, the compounds of formula (I) cause a lowering of arterial pressure.

[12] = test system: painful stretchings following intraperitoneal injection of acetic acid; assay: Analgesic: painful stretchings following intraperitoneal acetic acid in mouse; format: in vivo; conditions: 100 mg/kg/PO, read-out: Percentage reduction in the number of painful stretchings
Source text: The compounds of formula (I) administered orally to a mouse are capable of reducing the number of painful stretchings following the intraperitoneal injection of acetic acid.

[13] = test system: lethal effect of yohimbine; assay: Anti-depressive: potentialization of lethal effect of yohimbine; format: in vivo; conditions: at 100 mg/kg/PO, result in words
Method: as §1, §2

[14] = mice, Table XI, read-out: LD50 (mice)

Q: With `CNCC1COC2(O1)c1ccccc1C=Cc1ccccc12` (stereo not drawn) [R = CH3 (--Z-- = --CH = CH--), reference compound] as the compound, how does the ED50 [1] read?
A: Its ED50 is 25 mg/kg.

Q: And the LD50 ([2]; Table XIII, read-out: LD50)?
A: The LD50 was 750 mg/kg.

Q: For `O=C(CN1CCN(CC2COC3(O2)c2ccccc2C=Cc2ccccc23)CC1)N1CCCCCC1` (stereo not drawn) [compound 72176], which ED50 [3] is on record?
A: Its ED50 is 100 mg/kg.

Q: What about the “DE50 (spasmolytic)” value [4] of the same compound?
A: The value was 3.50 µg/mL.

Q: What about the mortality ([2]; 3400 mg/kg/PO) of the same compound?
A: The mortality was about 50%.

Q: What about the “Antihistamine activity DE50” value [5] of the same compound?
A: The value was 0.5 µg/mL.

Q: Which Antagonisms against contractions of fundus of rat, DE50 [6] does the source give for `O=C(CN1CCN(CC2COC3(O2)c2ccccc2C=Cc2ccccc23)CC1)N1CCOCC1` (stereo not drawn) [compound 71564] here?
A: The Antagonisms against contractions of fundus of rat, DE50 was 0.74 µg/mL.

Q: And the ED50 [3]?
A: Its ED50 is 200 mg/kg.

Q: What about the “DE50 (spasmolytic)” value [4] of the same compound?
A: Its value is 2.50 µg/mL.

Q: What about the mortality ([2]; 3500 mg/kg/PO) of the same compound?
A: Its mortality is about 50%.

Q: What about the LD50 [2, 14] of the same compound?
A: The LD50 was 3500 mg/kg.

Q: And the ED50 [7]?
A: Its ED50 is 0.05 mg/kg.

Q: And the Antagonisms against contractions of tied uterus, DE50 [8]?
A: The Antagonisms against contractions of tied uterus, DE50 was 0.001 µg/mL.

Q: What about the change in vivo at 12.5 mg/kg [9] of the same compound?
A: Its change in vivo at 12.5 mg/kg is 50%.

Q: For `OCC(O)CN1CCN(CC2COC3(O2)c2ccccc2CCc2ccccc23)CC1` (stereo not drawn) [compound 70405, 4'-N'-(2",3"-dihydroxy "-propyl)N-piperazinyl methyl spiro dibenzo (a,d) cycloheptadiene-5:2' dioxolane (1',3') dimaleate], which “Reduction of cough, duration” value ([10]; 100 mg/kg/ID) is on record?
A: The value was 60 mm.

Q: And the “Reduction of cough, intensity” value ([10]; 100 mg/kg/ID)?
A: The value was 100%.

Q: What about the “Reduction of arterial pressure, duration” value ([11]; 2 mg/kg/IV) of the same compound?
A: Its value is over 60 mm.

Q: And the “Reduction of arterial pressure, intensity” value ([11]; 2 mg/kg/IV)?
A: The value was 40%.

Q: And the mortality ([2]; 1600 mg/kg/PO)?
A: The mortality was about 50%.

Q: Which LD50 [2, 14] does the source give for `C1=Cc2ccccc2C2(OCC(CN3CCCC3)O2)c2ccccc21` (stereo not drawn) [compound 70301, reference compound] here?
A: Its LD50 is 425 mg/kg.

Q: And the ED50 [7]?
A: The ED50 was 0.4 mg/kg.

Q: Which Antagonisms against contractions of fundus of rat, DE50 [6] does the source give for `CCCN(CCC)C(=O)CN1CCN(CC2COC3(O2)c2ccccc2C=Cc2ccccc23)CC1` (stereo not drawn) [compound 7204, -4'-[N'-(di-n-propylaminocarbonylmethyl) N-piperazinylmethyl] spiro [dibenzo(a,d)cycloheptatriene-5:2' dioxolane (1',3')] dimaleate] here?
A: The Antagonisms against contractions of fundus of rat, DE50 was 0.07 µg/mL.

Q: And the ED50 [3]?
A: The ED50 was 100 mg/kg.

Q: And the inhibition in vivo at 100 mg/kg [12]?
A: The inhibition in vivo at 100 mg/kg was 70%.

Q: What about the “DE50 (spasmolytic)” value [4] of the same compound?
A: The value was 2.50 µg/mL.

Q: What about the mortality ([2]; 1900 mg/kg/PO) of the same compound?
A: The mortality was about 50%.

Q: What about the LD50 [2, 14] of the same compound?
A: Its LD50 is 1900 mg/kg.

Q: For `C1=Cc2ccccc2C2(OCC(CN3CCCCC3)O2)c2ccccc21` (stereo not drawn) [compound 70315, reference compound], which “Antagonism against ptosis caused by reserpine” value (“Antagonism … by reserpine” for short) ([1]; at 75 mg/kg/PO) is on record?
A: Its value is 45%.

Q: And the LD50 [2, 14]?
A: Its LD50 is 700 mg/kg.

Q: And the ED50 [7]?
A: Its ED50 is 1.4 mg/kg.

Q: For `CC(C)NC(=O)CN1CCN(CC2COC3(O2)c2ccccc2CCc2ccccc23)CC1` (stereo not drawn) [compound 70347], which inhibition in vivo at 100 mg/kg [12] is on record?
A: Its inhibition in vivo at 100 mg/kg is 70%.

Q: What about the “Antagonism … by reserpine” value ([1]; at 100 mg/kg/PO) of the same compound?
A: The value was “Inactive”.

Q: And the “Reduction of cough, duration” value ([10]; 1 mg/kg/IV)?
A: Its value is 20 mm.

Q: What about the “Reduction of cough, intensity” value ([10]; 1 mg/kg/IV) of the same compound?
A: The value was 80%.

Q: And the Spasmolytic activity [4]?
A: The Spasmolytic activity was 1.5 × papaverine.

Q: What about the “Reduction of arterial pressure, duration” value ([11]; 2 mg/kg/IV) of the same compound?
A: Its value is over 30 mm.

Q: And the “Reduction of arterial pressure, intensity” value ([11]; 2 mg/kg/IV)?
A: Its value is 50%.

Q: And the mortality ([2]; 1200 mg/kg/PO)?
A: The mortality was about 50%.

Q: What about the LD50 [2, 14] of the same compound?
A: The LD50 was 1200 mg/kg.

Q: What about the ED50 [7] of the same compound?
A: Its ED50 is 0.5 mg/kg.

Q: And the “Potentialization of lethal effect of yohimbine” value [13]?
A: Its value is “Inactive”.

Q: And the Antagonisms against contractions of tied uterus, DE50 [8]?
A: The Antagonisms against contractions of tied uterus, DE50 was 0.02 µg/mL.

Q: With `O=C(CN1CCN(CC2COC3(O2)c2ccccc2CCc2ccccc23)CC1)N1CCCC1` (stereo not drawn) [compound 70339] as the compound, how does the Antagonisms against contractions of fundus of rat, DE50 [6] read?
A: Its Antagonisms against contractions of fundus of rat, DE50 is 0.67 µg/mL.

Q: And the inhibition in vivo at 100 mg/kg [12]?
A: The inhibition in vivo at 100 mg/kg was 75%.

Q: What about the “Antagonism … by reserpine” value ([1]; at 100 mg/kg/PO) of the same compound?
A: Its value is “Inactive”.

Q: What about the “Reduction of cough, duration” value ([10]; 1 mg/kg/IV) of the same compound?
A: Its value is 20 mm.

Q: And the “Reduction of cough, intensity” value ([10]; 1 mg/kg/IV)?
A: The value was 100%.

Q: And the Spasmolytic activity [4]?
A: Its Spasmolytic activity is 1 × papaverine.

Q: What about the “Reduction of arterial pressure, duration” value ([11]; 1 mg/kg/IV) of the same compound?
A: Its value is over 30 mm.

Q: And the “Reduction of arterial pressure, intensity” value ([11]; 1 mg/kg/IV)?
A: Its value is 80%.

Q: What about the mortality ([2]; 1200 mg/kg/PO) of the same compound?
A: The mortality was about 50%.

Q: And the LD50 [2, 14]?
A: The LD50 was 1200 mg/kg.

Q: What about the ED50 [7] of the same compound?
A: Its ED50 is 0.1 mg/kg.

Q: And the “Potentialization of lethal effect of yohimbine” value [13]?
A: The value was “Inactive”.

Q: And the Antagonisms against contractions of tied uterus, DE50 [8]?
A: Its Antagonisms against contractions of tied uterus, DE50 is 0.002 µg/mL.

Q: Which ED50 [1] does the source give for `CCNCC1COC2(O1)c1ccccc1CCc1ccccc12` (stereo not drawn) [R = C2 H5 (--Z-- = --CH2 --CH2 --), reference compound] here?
A: The ED50 was about 50 mg/kg.

Q: And the LD50 ([2]; Table XIII, read-out: LD50)?
A: The LD50 was 550 mg/kg.
